For one series, the target named is T1, mouse DGAT1 (Mus musculus, UniProt Q9Z2A7).
T1 construct: made in house; host or cells: insect cells (High Five, Sf9, Sf21, etc.), baculovirus expression system (Invitrogen)
T1 sequence (Q9Z2A7 1-498): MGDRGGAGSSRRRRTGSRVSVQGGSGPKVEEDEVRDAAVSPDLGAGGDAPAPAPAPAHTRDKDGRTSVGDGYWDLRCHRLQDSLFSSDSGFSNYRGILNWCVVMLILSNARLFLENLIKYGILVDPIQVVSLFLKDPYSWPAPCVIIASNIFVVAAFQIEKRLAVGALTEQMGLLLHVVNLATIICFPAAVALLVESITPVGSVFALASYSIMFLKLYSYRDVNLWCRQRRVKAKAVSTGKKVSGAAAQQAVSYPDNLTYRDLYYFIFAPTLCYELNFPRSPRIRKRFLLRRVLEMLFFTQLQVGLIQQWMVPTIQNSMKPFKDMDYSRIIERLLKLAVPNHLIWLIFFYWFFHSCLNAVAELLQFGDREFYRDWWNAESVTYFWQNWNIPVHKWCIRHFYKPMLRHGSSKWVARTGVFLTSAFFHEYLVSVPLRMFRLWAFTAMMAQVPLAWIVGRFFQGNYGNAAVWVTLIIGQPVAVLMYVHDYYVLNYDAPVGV
The experiment in a line: DGAT1 inhibitory effect test (microsome fraction, [14C]-oleoyl-CoA, triglyceride radioactivity by TLC). Format: biochemical. As to conditions: 0.5 h; concentration of the test compound 0.1 μg/ml; mouse DGAT1 microsomes, 23° C., 30 minutes; read-out: Inhibitory ratio. The method, boiled down: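 Baculovirus-expressed mouse DGAT1 insect-cell microsomes (10 μg) were incubated 30 min at 23 °C, pH 8.0, with 0.5 mM 1,2-dioleoyl-sn-glycerol, 30 μM [14C]-oleoyl-CoA and 0.5% Triton X-100. [14C]-triglyceride was quantified after heptane extraction and TLC. Percent inhibition was taken against vehicle control, with 0-min background subtracted.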

The structures appear in SMILES notation. Bounds are passed on as bounds.

Compound `CCc1csc(NC(=O)Nc2ccc(N3CCN(C(=O)Nc4ccc(OCCO)cc4C(F)(F)F)CC3)cc2)n1` [Example 246, 4-{4-[3-(4-ethyl-thiazol-2-yl)-ureido]-phenyl}-piperazine-1-carboxylic acid [4-(2-hydroxy-ethoxy)-2-trifluoromethyl-phenyl]-amide] returned a melting point of 124 to 125 °C. The inhibition at 0.1 µg/mL at mouse DGAT1 was no less than 50%.
With `COc1cccc(NC(=O)Nc2ccc(N3CCN(C(=O)Nc4ccc(OCCO)cc4C(F)(F)F)CC3)cc2)c1OC` [Example 247, 4-{4-[3-(2,3-dimethoxy-phenyl)-ureido]-phenyl}-piperazine-1-carboxylic acid [4-(2-hydroxy-ethoxy)-2-trifluoromethyl-phenyl]-amide], the melting point fell in the range of 135 to 138 °C. For the same compound, on mouse DGAT1, the inhibition at 0.1 µg/mL was no less than 50%.
Take `COc1ccc(C)cc1NC(=O)Nc1ccc(N2CCN(C(=O)Nc3ccc(OCCO)cc3Cl)CC2)cc1` [Example 248, 4-{4-[3-(2-methoxy-5-methyl-phenyl)-ureido]-phenyl}-piperazine-1-carboxylic acid [2-chloro-4-(2-hydroxy-ethoxy)-phenyl]-amide]: the melting point lay within 152 to 154 °C. For the same compound, the inhibition at 0.1 µg/mL on mouse DGAT1 was no less than 50%.
`COc1cccc(NC(=O)Nc2ccc(N3CCN(C(=O)Nc4ccc(OCCO)cc4Cl)CC3)cc2)c1` [Example 249, 4-{4-[3-(3-methoxy-phenyl)-ureido]-phenyl}-piperazine-1-carboxylic acid [2-chloro-4-(2-hydroxy-ethoxy)-phenyl]-amide] came in with a melting point of 198 to 201 °C. The inhibition at 0.1 µg/mL at mouse DGAT1 was no less than 50%.
In the case of `COc1cc(NC(=O)Nc2ccc(N3CCN(C(=O)Nc4ccc(OCCO)cc4Cl)CC3)cc2)cc(OC)c1` [Example 250, 4-{4-[3-(3,5-dimethoxy-phenyl)-ureido]-phenyl}-piperazine-1-carboxylic acid [2-chloro-4-(2-hydroxy-ethoxy)-phenyl]-amide], the melting point is 114 to 116 °C. Besides, on mouse DGAT1, the inhibition at 0.1 µg/mL was no less than 50%.
Consider `COc1ccccc1NC(=O)Nc1ccc(N2CCN(C(=O)Nc3ccc(OCCO)cc3Cl)CC2)cc1` [Example 251, 4-{4-[3-(2-methoxy-phenyl)-ureido]-phenyl}-piperazine-1-carboxylic acid [2-chloro-4-(2-hydroxy-ethoxy)-phenyl]-amide], for which the melting point lay in the range of 134 to 136 °C. Besides, the inhibition at 0.1 µg/mL on mouse DGAT1 is no less than 50%.
The compound `COc1ccc(C)cc1NC(=O)Nc1ccc(N2CCN(C(=O)Nc3ccc(OCCO)cc3Cl)C(C)C2)cc1` (centres unmarked) [Example 252, 4-{4-[3-(2-methoxy-5-methyl-phenyl)-ureido]-phenyl}-2-methyl-piperazine-1-carboxylic acid [2-chloro-4-(2-hydroxy-ethoxy)-phenyl]-amide] returned a melting point of 129 to 131 °C. Moreover, the inhibition at 0.1 µg/mL on mouse DGAT1 was no less than 50%.
Taken in the same sequence, the figures for `COc1ccc(C)cc1NC(=O)Nc1ccc(N2CCN(C(=O)Nc3ccc(OCCO)cc3Cl)CC2)c(F)c1` [Example 253, 4-{2-fluoro-4-[3-(2-methoxy-5-methyl-phenyl)-ureido]-phenyl}-piperazine-1-carboxylic acid [2-chloro-4-(2-hydroxy-ethoxy)-phenyl]-amide] were 118 to 120 °C and no less than 50%.
Consider `O=C(Nc1ccc(N2CCN(C(=O)Nc3ccc(OCCO)cc3Cl)CC2)cc1)Nc1ccccc1F` [Example 255, 4-{4-[3-(2-fluoro-phenyl)-ureido]-phenyl}-piperazine-1-carboxylic acid [2-chloro-4-(2-hydroxy-ethoxy)-phenyl]-amide], for which the melting point was in the range of 213 to 217 °C. At mouse DGAT1, the inhibition at 0.1 µg/mL was no less than 50%.
Turning to `COc1ccc(C)cc1NC(=O)Nc1ccc(C2=CCN(C(=O)Nc3ccc(OCCO)cc3Cl)CC2)cc1` [Example 256, 4-{4-[3-(2-methoxy-5-methyl-phenyl)-ureido]-phenyl}-3,6-dihydro-2H-pyridine-1-carboxylic acid [2-chloro-4-(2-hydroxy-ethoxy)-phenyl]-amide], the melting point was 117 to 120 °C. In addition, at mouse DGAT1, the inhibition at 0.1 µg/mL was no less than 50%.
`COc1ccc(C)cc1NC(=O)Nc1ccc(C2CCN(C(=O)Nc3ccc(OCCO)cc3Cl)CC2)cc1` [Example 257, 4-{4-[3-(2-methoxy-5-methyl-phenyl)-ureido]-phenyl}-piperidine-1-carboxylic acid [2-chloro-4-(2-hydroxy-ethoxy)-phenyl]-amide]: the melting point was 134 to 137 °C. The inhibition at 0.1 µg/mL on mouse DGAT1 was no less than 50%.
As to `COc1ccccc1NC(=O)Nc1ccc(C2=CCN(C(=O)Nc3ccc(OCCO)cc3Cl)CC2)cc1` [Example 258, 4-{4-[3-(2-methoxy-phenyl)-ureido]-phenyl}-3,6-dihydro-2H-pyridine-1-carboxylic acid [2-chloro-4-(2-hydroxy-ethoxy)-phenyl]-amide], the melting point was in the range of 120 to 125 °C. Also, the inhibition at 0.1 µg/mL at mouse DGAT1 was no less than 50%.
Take `COc1cc(NC(=O)Nc2ccc(C3=CCN(C(=O)Nc4ccc(OCCO)cc4Cl)CC3)cc2)cc(OC)c1` [Example 259, 4-{4-[3-(3,5-dimethoxy-phenyl)-ureido]-phenyl}-3,6-dihydro-2H-pyridine-1-carboxylic acid [2-chloro-4-(2-hydroxy-ethoxy)-phenyl]-amide]: the melting point was 135 to 139 °C. Moreover, the inhibition at 0.1 µg/mL at mouse DGAT1 was no less than 50%.
The compound `O=C(Nc1ccc(C2=CCN(C(=O)Nc3ccc(OCCO)cc3Cl)CC2)cc1)Nc1ccccc1F` [Example 260, 4-{4-[3-(2-fluoro-phenyl)-ureido]-phenyl}-3,6-dihydro-2H-pyridine-1-carboxylic acid [2-chloro-4-(2-hydroxy-ethoxy)-phenyl]-amide] registered a melting point of 173 to 178 °C. For the same compound, the inhibition at 0.1 µg/mL on mouse DGAT1 is no less than 50%.
`COc1ccccc1NC(=O)Nc1ccc(C2CCN(C(=O)Nc3ccc(OCCO)cc3Cl)CC2)cc1` [Example 261, 4-{4-[3-(2-methoxy-phenyl)-ureido]-phenyl}-piperidine-1-carboxylic acid [2-chloro-4-(2-hydroxy-ethoxy)-phenyl]-amide] registered a melting point of 166 to 168 °C. In addition, the inhibition at 0.1 µg/mL at mouse DGAT1 is no less than 50%.
Taken in the same sequence, the figures for `COc1cc(NC(=O)Nc2ccc(C3CCN(C(=O)Nc4ccc(OCCO)cc4Cl)CC3)cc2)cc(OC)c1` [Example 262, 4-{4-[3-(3,5-dimethoxy-phenyl)-ureido]-phenyl}-piperidine-1-carboxylic acid [2-chloro-4-(2-hydroxy-ethoxy)-phenyl]-amide] were 101 to 105 °C and no less than 50%.
As to `O=C(Nc1ccc(C2CCN(C(=O)Nc3ccc(OCCO)cc3Cl)CC2)cc1)Nc1ccccc1F` [Example 263, 4-{4-[3-(2-fluoro-phenyl)-ureido]-phenyl}-piperidine-1-carboxylic acid [2-chloro-4-(2-hydroxy-ethoxy)-phenyl]-amide], the melting point was 166 to 171 °C. Also, the inhibition at 0.1 µg/mL at mouse DGAT1 was no less than 50%.
Taken in the same sequence, the figures for `CCOc1cccc(NC(=O)Nc2ccc(C3CCN(C(=O)Nc4ccc(OCCO)cc4Cl)CC3)cc2)c1` [Example 264, 4-{4-[3-(3-ethoxy-phenyl)-ureido]-phenyl}-piperidine-1-carboxylic acid [2-chloro-4-(2-hydroxy-ethoxy)-phenyl]-amide] were 129 to 134 °C and no less than 50%.
The compound `COc1ccccc1NC(=O)Nc1ccc2c(c1)CCN(C(=O)Nc1ccc(OCCO)cc1Cl)C2` [Example 265, 6-[3-(2-methoxy-phenyl)-ureido]-3,4-dihydro-1 H-isoquinoline-2-carboxylic acid [2-chloro-4-(2-hydroxy-ethoxy)-phenyl]-amide] had a melting point of 130 to 135 °C. The inhibition at 0.1 µg/mL at mouse DGAT1 was no less than 50%.
`COc1cc(NC(=O)Nc2ccc3c(c2)CCN(C(=O)Nc2ccc(OCCO)cc2Cl)C3)cc(OC)c1` [Example 266, 6-[3-(3,5-dimethoxy-phenyl)-ureido]-3,4-dihydro-1H-isoquinoline-2-carboxylic acid [2-chloro-4-(2-hydroxy-ethoxy)-phenyl]-amide] returned a melting point of 105 to 110 °C. Also, the inhibition at 0.1 µg/mL at mouse DGAT1 was no less than 50%.
For `O=C(Nc1ccc2c(c1)CCN(C(=O)Nc1ccc(OCCO)cc1Cl)C2)Nc1ccccc1F` [Example 267, 6-[3-(2-fluoro-phenyl)-ureido]-3,4-dihydro-1H-isoquinoline-2-carboxylic acid [2-chloro-4-(2-hydroxy-ethoxy)-phenyl]-amide], the melting point was in the range of 183 to 186 °C. Further, at mouse DGAT1, the inhibition at 0.1 µg/mL was no less than 50%.
`COc1ccc(C)cc1NC(=O)Nc1ccc(N2CCN(C(=O)Nc3ccc(OCCO)cc3Cl)CC2)nc1` [Example 268, 4-{5-[3-(2-methoxy-5-methyl-phenyl)-ureido]-pyridin-2-yl}-piperazine-1-carboxylic acid [2-chloro-4-(2-hydroxy-ethoxy)-phenyl]-amide] showed a melting point of 196 to 197 °C. Further, on mouse DGAT1, the inhibition at 0.1 µg/mL was no less than 50%.

In general, melting point refers to the temperature, or range, at which the solid turns liquid.
